# In patent US11639384B2, “Treatment of pediatric BCP-ALL patients with an anti-KIR antibody” (UNIVERSITY CHILDREN'S HOSPITAL TÜBINGEN, priority 2014, dated 2023):
# Entries after “also recorded” stand apart in the source; their conditions may differ. Where two headings read alike, the source gives them in different places.
# Key:
# [1] = test system: KIR2DL2/3; test: KIR receptor occupancy on cells from KIR2DL2/3+ patients; assay type: in vivo, human
# [2] = test system: AML; test: Phase 1 overall survival of AML patients; assay type: in vivo, human; conditions: 1 and 3 mg/kg
# [3] = test system: KIR receptor; conditions: cited from earlier work
# [4] = test system: AML; conditions: cited from earlier work
# [5] = test system: HLA-Cw3+ and HLA-Cw4+ targets; conditions: cited from earlier work
# [6] = test system: KIR2DL1 and KIR2DL2/3; conditions: literature and WO 2006/003179; cited from earlier work
# [7] = molecular target: KIR2DS4 (Homo sapiens, UniProt P43632); conditions: cited from earlier work
# Chain of KIR2DS4 (P43632 22-304): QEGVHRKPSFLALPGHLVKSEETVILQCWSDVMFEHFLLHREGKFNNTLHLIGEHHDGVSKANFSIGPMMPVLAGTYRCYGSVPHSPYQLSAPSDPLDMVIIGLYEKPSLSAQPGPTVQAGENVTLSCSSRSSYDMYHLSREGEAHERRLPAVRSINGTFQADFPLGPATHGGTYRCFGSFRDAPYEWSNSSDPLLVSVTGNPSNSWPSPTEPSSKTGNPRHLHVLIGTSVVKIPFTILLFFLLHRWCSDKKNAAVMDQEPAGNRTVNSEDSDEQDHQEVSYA
# [8] = molecular target: KIR2DS3 (Homo sapiens, UniProt Q14952); conditions: cited from earlier work
# Chain of KIR2DS3 (Q14952 22-304): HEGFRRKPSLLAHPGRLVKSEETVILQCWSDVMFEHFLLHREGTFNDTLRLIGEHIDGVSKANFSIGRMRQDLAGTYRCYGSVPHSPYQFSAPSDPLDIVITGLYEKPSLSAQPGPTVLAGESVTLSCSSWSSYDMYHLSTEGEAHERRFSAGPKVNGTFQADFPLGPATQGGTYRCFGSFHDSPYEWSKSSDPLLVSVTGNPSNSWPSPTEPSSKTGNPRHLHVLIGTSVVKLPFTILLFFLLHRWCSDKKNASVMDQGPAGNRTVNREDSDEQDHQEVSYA
# [9] = test system: KIR2DS1 and KIR2DS2; conditions: cited from earlier work
# [10] = test system: KIR2DL2/3; conditions: cited from earlier work
# [11] = WO 2006/003179; cited from earlier work
# [12] = test system: CD45+ cells; test: In vivo treatment with 5-aza-cytidine: BM cytotoxicity; conditions: low-dose, long-term treatment; huNSG and non-humanized control mice
# [13] = test system: BM-derived NK cells; test: In vivo treatment with 5-aza-cytidine: NK cell phenotype and subsets in BM; set-up: species or system huNSG mice
# [14] = Troetel et al., 1972; cited from earlier work
# [15] = test system: pediatric BCP-ALL; test: In vivo treatment with 5-aza-cytidine: leukemic burden in BM; conditions: non-humanized control NSG mice, low-dose regimen
# [16] = test system: KIR2DL1 and KIR2DL2/3; test: KIR binding specificity of anti-KIR mAbs: inhibitory KIR2DL; set-up: species or system human
# [17] = test system: NALM-16 cells; test: In vitro cytotoxicity of sorted KIR+ NKAES cells with KIR blockade; assay type: cell-based; conditions: 15 μg/ml, NALM-16, E:T ratio 2:1
# Experimental: Target cells or cell lines were labeled with 0.5 μM CFSE (Vybrant CFDA SE Cell Tracer Kit®, Invitrogen, Germany) 1 day prior to use. NKAES cells were thawed, cultivated overnight and subsequently sorted into KIR^+ and KIR^− subsets following labeling with anti-CD158a (clone HP3E4 recognizing KIR2DL1/S1/S4), anti-CD158b (clone GL183 recognizing KIR2DL2/S2/L3) and anti-CD158e (clone DX9 recognizing 3DL1). KIR^+ and KIR^− NK cells were used as effector cells and cultured overnight in the presence of 100 IU/ml IL2. Co-incubation with NALM-16 cells was performed in triplicates at ratios between 10:1 and 2:1 for 5 h. Following staining with ARD-Ax350, cells were washed and analyzed. To correct for spontaneously occurring cell death, target cell monoculture controls were included in every experiment. The percentage of specific cytotoxicity was calculated as follows: (% CFSE^+ARD^+ dead targets−% CFSE^+ARD^+ spontaneously dead targets)/(100−% CFSE^+ ARD^+ spontaneously dead targets)×100%.
# In vitro cytotoxicity was assayed as described in Example 1. […] Following staining with ARD-Ax350, cells were washed and analyzed.
# [18] = test system: inhibitory KIR; test: Lirilumab treatment of huNSG mice: inhibitory KIR expression; assay type: in vivo; conditions: 250 μg/mouse, preliminary data
# Experimental: HuNSG mice were treated 14 days before the injection of leukemia cells with a complex of IL15/IL15Ra. One day prior to blasts injection, NK cells were additionally activated by intravenous injection of polyI:C and IPH2102. On the following day blasts were injected, and after 24 h the extent of tumor burden was quantified using 8-11 color flow cytometry.
# [19] = test system: BCP-ALL sample P23T; test: Lirilumab in NSG mice with adoptively transferred KIR-KIRL-matched NK cells: tumor burden; assay type: in vivo; conditions: P23T blasts, KIR-KIRL-matched activated NK cells, 2250 μg/mouse i.v., 24 h, preliminary data
# Experimental: Naïve NSG mice were injected with blasts, followed by the injection of activated NK cells and subsequent intravenous injection of IPH2102 (2250 μg/mouse). Mice were euthanized after 24 h to quantify tumor burden. […] Data depicted in FIGS. 13B and D represent preliminary data performed in a small number of mice. The data provided in Examples 1-4 support the concept that NK cell immune-therapy, ideally performed with KIR-KIRL-mismatched donors, should have a role in the treatment of pediatric BCP-ALL disease.
compound,measurement,setting,value
"1-7F9: KIR2DL-cross-reactive fully human IgG4 kappa mAb; H chain SEQ ID NO:3, L chain SEQ ID NO:5",receptor occupancy,"[1]; 0.2 mg/kg and 2 mg/kg, 28-day period",good receptor occupancy throughout the 28-day period
same,improvement of OS versus <0.3 mg/kg group,[2],~18 months
same,duration of full (>90%) KIR receptor occupancy,[3]; 0.075 mg/kg,1 week
same,duration of full (>90%) KIR receptor occupancy,[3]; 1 mg/kg,2 weeks
same,duration of KIR saturation (>30% KIR occupancy),[3]; 3 mg/kg,24-32 weeks
same,duration of full (>90%) KIR receptor occupancy,[3]; 3 mg/kg,at least 4 weeks
same,overall survival (OS),"[4]; 6 AML patients, dosages of 1 and 3 mg/kg",29.7 months
same,overall survival (OS),"[4]; 16 AML patients, <0.3 mg/kg",11.8 months
same,reconstitution of cell lysis by NK cells against Cw4-positive targets,"[5]; WO 2005/003168, Example 4",almost completely reconstitutes lysis
same,potentiation of NK cell cytolytic activity on HLA-Cw3+ and HLA-Cw4+ targets,[5]; WO 2005/003168,strongly potentiate NK cell cytolytic activity
same,KIRs bound / recognized,[6],binds specifically to both KIR2DL1 and KIR2DL2/3
same,binding to KIR2DS4,[7],"does not bind to the stimulatory KIR, KIR2DS4; also recorded: none of 1-7F9, lirilumab and 1-4F1 binds to KIR2DS4"
same,binding to KIR2DS3,[8],"does not bind to the stimulatory KIR, KIR2DS3"
same,binding to KIR2DS1 and KIR2DS2,[9],bind to KIR2DS1 and KIR2DS2
same,blocking of binding of group 1 HLA-C (HLA-Cw3) to KIR2DL2/3,[10],blocks
same,IgG4 half-molecule formation,[11],did not reveal half-molecule formation
Nc1ncn([C@@H]2O[C@H](CO)[C@@H](O)[C@H]2O)c(=O)n1 [5-aza-cytidine],BM cytotoxicity: human and murine CD45+ cells,[12],statistically insignificant reduction; also recorded: does not exert statistically relevant BM cytotoxicity
same,"expression of inhibitory (KIRs, NKG2A) and activating (NKp44, NKG2D) NK cell receptors","[13]; BM-derived NK cells of huNSG mice, low doses",did not significantly modulate the expression; also recorded: does not significantly alter the expression
same,numbers of immature NK cell precursors and mature NK cell subsets in BM,"[13]; huNSG mice, low-dose long-term treatment",distinctly higher numbers of both immature and mature NK cell subsets; also recorded: clearly higher numbers; also recorded: induces the expression of BM-residing NK cell precursors
same,half-life,[14],less than 4 h
same,direct cytotoxic effect on pediatric BCP-ALL,[15],largely excluded; also recorded: does not exert relevant direct cytotoxic effects
"lirilumab: 1-7F9(S241P) variant, human IgG4 anti-KIR2DL1/2/3 mAb; H chain SEQ ID NO:4, L chain SEQ ID NO:5",KIR receptor occupancy,"[1]; 1 mg/kg, over a 28-day period",~100%
same,effect of S241P mutation on affinity for KIR2DL1 and KIR2DL2/3,[16],equalizes the affinity for KIR2DL1 and KIR2DL2/3
same,specificity and affinity of binding to KIR targets,[16]; inferred from identical CDRs and variable regions,the same as that exhibited by 1-7F9
same,effect on cytotoxicity of KIR+ NK cells of KIR-KIRL-matched donors,[17],distinctly enhanced
same,effect on cytotoxicity of KIR+ NK cells of KIR-KIRL-mismatched donors,[17],did not respond to inhibitory KIR blockade
same,levels of inhibitory KIR expression,[18],very low levels; also recorded: barely detectable levels
same,levels of inhibitory KIR expression,[18]; listed as lirilumab (IPH2102),negligible
same,tumor burden,[19],significant reduction of tumor burden
same,binding to KIR2DS4,[7],"none of 1-7F9, lirilumab and 1-4F1 binds to KIR2DS4"
same,binding to KIR2DS1 and KIR2DS2,[9],bind to KIR2DS1 and KIR2DS2
